Experimental data from patent publication US20190134047A1, “A MIXTURE OF D-SERINE AND CAFFEINE FOR OBTAINING THE EFFECT OF PREVENTING THE DECLINE OF LEARNING ABILITY OR MEMORY CAUSED BY STRESS AND ENHANCING LEARNING ABILITY OR MEMORY, AND A FUNCTIONAL FOOD COMPOSITION CONTAINING THE SAME” (ADVANCED NT, priority 2016, published 2019).

Tested on: C57BL/6 male mouse
Test: Novel object recognition test with restraint stress
Assay type: in vivo
Details: for preference for objects A and B on the fourth day (training day): abdominal injection 30 min before; for preference for objects A and B on the fourth day (training day) / preference for new object C on the fifth day after 24 hours: + restraint stress, mean±standard error; for preference for new object C on the fifth day after 24 hours: abdominal injection
Description: In all experiments, C57BL/6 male mouse, a kind of B6 mouse of 8-12 weeks old, were used. The experimental groups were divided into 7 experimental groups according to whether they were stressed or not and the type and weight of injected drugs as follows. […] Immediately after each behavioral experiment, restraint stress was applied by placing the mouse in a 50 mL tube pre-pierced with about 9 pores for 90 minutes. A mouse was placed in an open-field box (40 cm×40 cm×40 cm) made of acryl for 15 minutes every day for 3 days to fit and stabilize to the box. On the training day of the fourth day, two different objects made of acryl (objects A and B) were placed at regular intervals in the box and the mice were trained to freely search objects A and B for 10 minutes. […] The search time for each object (A and C or B and C) was quantified and the preference for the object was expressed as a ratio of search time (Preference (%)=C/(A+C)*100). […] To compare the results of the said two behavioral experiments, SPSS 21.0 (SPSS Inc, Chicago, Ill.) and Student's T-test and one-way ANOVA were used for statistical analysis.

[1] = D-serine 500 mg (second weight)

Row | SMILES | preference for objects A and B on the fourth day (training day) (Caffeine 10 mg) [%] | preference for new object C on the fifth day after 24 hours (Caffeine 10 mg) [%] | preference for new object C, comparison among drug groups (D-Serine 50 mg + restraint stress as printed, 24-hour results, one-way ANOVA) | preference for objects A and B on the fourth day (training day) (D-serine 50 mg (first weight)) [%] | preference for new object C on the fifth day after 24 hours (D-serine 50 mg (first weight)) [%] | preference for objects A and B on the fourth day (training day) [1] [%] | preference for new object C on the fifth day after 24 hours [1] [%]
1 | Cn1c(=O)c2c(ncn2C)n(C)c1=O [caffeine] | 49.92±2.75 | 62.06±2.27 |  |  |  |  | 
2 | N[C@H](CO)C(=O)O [D-serine] |  |  | highest preference | 52.12±2.81 | 63.63±3.94 | 47.83±3.97 | 67.55±3.46
